This is an account of results in US9725416B2, “Ethynyl derivatives” (Hoffmann-La Roche Inc., priority 2014, dated 2017).

As usually defined, the EC50 is the concentration that produces a half-maximal response.

The test has as its target T1, human mGlu4 receptor (Homo sapiens, UniProt Q14833).
T1 construct: expressed in transfected cells; host or cells: HEK-293 (monoclonal, stably transfected)
Put plainly: Ca2+ mobilization in vitro assay on recombinant human mGlu4 expressed in HEK293 cells (mGlu4 PAM). It is filed as cell-based. Particulars: for Emax: HEK293, maximal response in % of the maximal stimulatory effect obtained with saturating concentrations of L-AP4, read-out: Eff. (%); for EC50: HEK-293 cells, Ca2+ mobilization, L-AP4 added at EC20. As to the method:
Determination of EC50 Values Using a Ca2+ mobilization in vitro Assay on Recombinant Human mGlu4 Expressed in HEK293 cells:
A monoclonal HEK-293 cell line stably transfected with a cDNA encoding for the human mGlu4 receptor was generated; for the work with mGlu4 Positive Allosteric Modulators (PAMs), a cell line with low receptor expression levels and low constitutive receptor activity was selected to allow the differentiation of agonistic versus PAM activity. Cells were cultured according to standard protocols (Freshney, 2000) in Dulbecco's Modified Eagle Medium with high glucose supplemented with 1 mM glutamine, 10% (vol/vol) heat-inactivated bovine calf serum, Penicillin/Streptomycin, 50 μg/ml hygromycin and 15 μg/ml blasticidin (all cell culture reagents and antibiotics from Invitrogen, Basel, Switzerland).
About 24 hrs before an experiment, 5×10^4 cells/well were seeded in poly-D-lysine coated, black/clear-bottomed 96-well plates. The cells were loaded with 2.5 μM Fluo-4AM in loading buffer (1×HBSS, 20 mM HEPES) for 1 hr at 37° C. and washed five times with loading buffer. The cells were transferred into a Functional Drug Screening System 7000 (Hamamatsu, Paris, France), and 11 half logarithmic serial dilutions of test compound at 37° C. were added and the cells were incubated for 10-30 min. with on-line recording of fluorescence. Following this pre-incubation step, the agonist (2S)-2-amino-4-phosphonobutanoic acid (L-AP4) was added to the cells at a concentration corresponding to EC20 with on-line recording of fluorescence; in order to account for day-to-day variations in the responsiveness of cells, the EC20 of L-AP4 was determined immediately ahead of each experiment by recording of a full dose-response curve of L-AP4.
Responses were measured as peak increase in fluorescence minus basal (i.e. fluorescence without addition of L-AP4), normalized to the maximal stimulatory effect obtained with saturating concentrations of L-AP4. Graphs were plotted with the % maximal stimulatory using XLfit, a curve fitting program that iteratively plots the data using Levenburg Marquardt algorithm. The single site competition analysis equation used was y=A+((B−A)/(1+((x/C)D))), where y is the % maximal stimulatory effect, A is the minimum y, B is the maximum y, C is the EC50, x is the log 10 of the concentration of the competing compound and D is the slope of the curve (the Hill Coefficient). From these curves the EC50 (drug concentration at which 50% of the maximal receptor activation was achieved), the Hill coefficient as well as the maximal response in % of the maximal stimulatory effect obtained with saturating concentrations of L-AP4 were calculated (see FIG. 1).
A depression of the signal observed after addition of the EC20 concentration of L-AP4was indicative of an inhibitory activity of the test compound.
On the technique in general: A change in cytosolic calcium serves as a functional read-out for many receptors and channels.

Molecules are shown by their SMILES.

T1 sequence (Q14833 33-912): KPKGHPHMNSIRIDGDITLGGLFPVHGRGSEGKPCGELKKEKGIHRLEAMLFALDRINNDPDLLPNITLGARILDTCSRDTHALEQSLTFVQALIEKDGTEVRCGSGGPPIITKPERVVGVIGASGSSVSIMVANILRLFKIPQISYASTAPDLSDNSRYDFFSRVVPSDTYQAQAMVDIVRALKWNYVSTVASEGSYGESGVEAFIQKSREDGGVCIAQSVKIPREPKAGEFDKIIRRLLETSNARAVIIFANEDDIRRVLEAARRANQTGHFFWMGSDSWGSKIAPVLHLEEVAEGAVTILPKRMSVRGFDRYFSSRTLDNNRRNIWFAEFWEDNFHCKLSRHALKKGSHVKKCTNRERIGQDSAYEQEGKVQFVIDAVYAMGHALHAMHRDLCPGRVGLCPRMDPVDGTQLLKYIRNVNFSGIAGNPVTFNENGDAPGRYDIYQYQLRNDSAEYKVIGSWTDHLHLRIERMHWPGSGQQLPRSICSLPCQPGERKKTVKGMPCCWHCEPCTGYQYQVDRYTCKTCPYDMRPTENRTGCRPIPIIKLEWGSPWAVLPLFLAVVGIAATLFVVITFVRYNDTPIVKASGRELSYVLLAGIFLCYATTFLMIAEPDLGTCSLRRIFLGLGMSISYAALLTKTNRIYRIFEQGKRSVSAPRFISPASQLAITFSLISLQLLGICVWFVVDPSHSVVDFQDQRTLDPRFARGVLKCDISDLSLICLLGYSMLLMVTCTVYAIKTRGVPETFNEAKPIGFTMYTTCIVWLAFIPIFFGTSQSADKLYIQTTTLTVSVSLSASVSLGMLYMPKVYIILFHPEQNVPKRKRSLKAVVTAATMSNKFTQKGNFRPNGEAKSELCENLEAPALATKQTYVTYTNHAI

In the case of `CN1C(=O)N(c2c(F)cc(C#Cc3ccccc3)cc2F)C(=O)CC1(C)c1cccnc1` (racemic) [Example 29, (6RS)-3-[2,6-Difluoro-4-(2-phenylethynyl)phenyl]-1,6-dimethyl-6-(3-pyridyl)hexahydropyrimidine-2,4-dione], the Emax was found to be 144% and the EC50 amounted to 109 nM.

Take `COc1cc([C@]2(C)CC(=O)N(c3c(F)cc(C#Cc4ccccc4)cc3F)C(=O)N2C)ccn1` [Example 73, (6S)-3-[2,6-Difluoro-4-(2-phenylethynyl)phenyl]-6-(2-methoxy-4-pyridyl)-1,6-dimethyl-hexahydropyrimidine-2,4-dione]: the Emax came out at 120% and the EC50 was 47 nM.

`CN1C(=O)N(c2c(F)cc(C#Cc3ccccc3)cc2F)C(=O)C[C@@]1(C)c1cncnc1` [Example 56, (6S)-3-[2,6-Difluoro-4-(2-phenylethynyl)phenyl]-1,6-dimethyl-6-pyrimidin-5-yl-hexahydropyrimidine-2,4-dione]: the Emax came out at 99% and the EC50 was 79 nM.

As for `CN1C(=O)N(c2c(F)cc(C#Cc3ccccc3)cc2F)C(=O)C[C@@]1(C)c1cnccn1` [Example 57, (6S)-3-[2,6-Difluoro-4-(2-phenylethynyl)phenyl]-1,6-dimethyl-6-pyrazin-2-yl-hexahydropyrimidine-2,4-dione], the Emax is 102% and the EC50 was found to be 117 nM.

Take `CN1C(=O)N(c2ccc(C#Cc3ccccc3)cc2Cl)C(=O)CC12CCCCC2` [Example 3, 3-[2-Chloro-4-(2-phenylethynyl)phenyl]-1-methyl-1,3-diazaspiro[5.5]undecane-2,4-dione]: the Emax was 105% and the EC50 worked out at 245 nM.

Consider `CC(C)N1C(=O)N(c2c(F)cc(C#Cc3ccccc3)cc2F)C(=O)C[C@@]1(C)c1cccnc1` [Example 70, (6S)-3-[2,6-Difluoro-4-(2-phenylethynyl)phenyl]-1-isopropyl-6-methyl-6-(3-pyridyl)hexahydropyrimidine-2,4-dione], for which the Emax amounted to 106% and the EC50 is 73 nM.

Turning to `Cc1ccc([C@]2(C)CC(=O)N(c3c(F)cc(C#Cc4ccccc4)cc3F)C(=O)N2C)cn1` [Example 54, (6S)-3-[2,6-Difluoro-4-(2-phenylethynyl)phenyl]-1,6-dimethyl-6-(6-methyl-3-pyridyl)hexahydropyrimidine-2,4-dione], the Emax was found to be 98% and the EC50 turned out to be 70 nM.

`CN1C(=O)N(c2c(F)cc(C#Cc3ccccc3)cc2F)C(=O)C[C@@]1(C)c1cncc(F)c1` [Example 59, (6S)-3-[2,6-Difluoro-4-(2-phenylethynyl)phenyl]-6-(5-fluoro-3-pyridyl)-1,6-dimethyl-hexahydropyrimidine-2,4-dione]: the Emax is 89% and the 50% effective concentration (EC50) was 75 nM.

As for `CN1C(=O)N(c2c(F)cc(C#Cc3ccccc3)cc2F)C(=O)CC1(C)c1ccccn1` (racemic) [Example 27, (6RS)-3-[2,6-Difluoro-4-(2-phenylethynyl)phenyl]-1,6-dimethyl-6-(2-pyridyl)hexahydropyrimidine-2,4-dione], the Emax stood at 99% and the EC50 came out at 72 nM.

As for `CN1C(=O)N(c2c(F)cc(C#Cc3cccnc3)cc2Cl)C(=O)CC1(C)c1cccnc1` (racemic) [Example 33, (6RS)-3-[2-Chloro-6-fluoro-4-[2-(3-pyridyl)ethynyl]phenyl]-1,6-dimethyl-6-(3-pyridyl)hexahydropyrimidine-2,4-dione], the Emax stood at 142% and the EC50 turned out to be 171 nM.

Regarding `CN1C(=O)N(c2c(F)cc(C#Cc3cccnc3)cc2F)C(=O)C[C@@]1(C)c1cccnc1` [Example 53, (6S)-3-[2,6-Difluoro-4-[2-(3-pyridyl)ethynyl]phenyl]-1,6-dimethyl-6-(3-pyridyl)hexahydropyrimidine-2,4-dione], the Emax came out at 110% and the EC50 amounted to 80 nM.

For the compound `CN1C(=O)N(c2c(F)cc(C#Cc3cccnc3)cc2F)C(=O)CC1(C)c1cccc(Cl)c1` (racemic) [Example 39, (6RS)-6-(3-Chlorophenyl)-3-[2,6-difluoro-4-[2-(3-pyridyl)ethynyl]phenyl]-1,6-dimethyl-hexahydropyrimidine-2,4-dione], the Emax came out at 112% and the EC50 was 224 nM.

In the case of `CCN1C(=O)N(c2c(F)cc(C#Cc3cccnc3)cc2F)C(=O)CC1(C)c1ccccc1` (racemic) [Example 16, (6RS)-3-[2,6-Difluoro-4-[2-(3-pyridyl)ethynyl]phenyl]-1-ethyl-6-methyl-6-phenyl-hexahydropyrimidine-2,4-dione], the Emax was 136% and the EC50 is 105 nM.

For `CN1C(=O)N(c2c(F)cc(C#Cc3ccccc3)cc2F)C(=O)C[C@@]1(C)c1cnc(=O)[nH]c1` [Example 80, (6S)-3-[2,6-Difluoro-4-(2-phenylethynyl)phenyl]-1,6-dimethyl-6-(2-oxo-1H-pyrimidin-5-yl)hexahydropyrimidine-2,4-dione], the Emax is 105% and the EC50 is 185 nM.

Turning to `CN1C(=O)N(c2c(F)cc(C#Cc3ccccc3)cc2F)C(=O)C[C@@]1(C)c1ccc2nccn2n1` [Example 85, (6S)-3-[2,6-Difluoro-4-(2-phenylethynyl)phenyl]-6-imidazo[1,2-b]pyridazin-6-yl-1,6-dimethyl-hexahydropyrimidine-2,4-dione], the Emax was determined as 88% and the EC50 is 57 nM.

Regarding `CN1C(=O)N(c2c(F)cc(C#Cc3ccccc3)cc2F)C(=O)CC12CCCC2` [Example 6, 8-[2,6-Difluoro-4-(2-phenylethynyl)phenyl]-6-methyl-6,8-diazaspiro[4.5]decane-7,9-dione], the Emax was found to be 142% and the EC50 is 72 nM.

On to `CN1C(=O)N(c2c(F)cc(C#Cc3ccccc3)cc2F)C(=O)CC1(C)c1ccc(Cl)nc1` (racemic) [Example 51, (6RS)-6-(6-Chloro-3-pyridyl)-3-[2,6-difluoro-4-(2-phenylethynyl)phenyl]-1,6-dimethyl-hexahydropyrimidine-2,4-dione], for which the Emax is 108% and the EC50 was found to be 88 nM.

Take `COCC1(C)CC(=O)N(c2c(F)cc(C#Cc3ccccc3)cc2F)C(=O)N1C` (racemic) [Example 30, (6RS)-3-[2,6-Difluoro-4-(2-phenylethynyl)phenyl]-6-(methoxymethyl)-1,6-dimethyl-hexahydropyrimidine-2,4-dione]: the Emax amounted to 103% and the EC50 was 123 nM.

Take `CN1C(=O)N(c2c(F)cc(C#Cc3ccccc3)cc2F)C(=O)C[C@@]1(C)c1ccnc(Cl)c1` [Example 60, (6S)-6-(2-Chloro-4-pyridyl)-3-[2,6-difluoro-4-(2-phenylethynyl)phenyl]-1,6-dimethyl-hexahydropyrimidine-2,4-dione]: the Emax was determined as 113% and the concentration for a half-maximal effect (EC50) came out at 38 nM.

`CN1C(=O)N(c2ncc(C#Cc3ccccc3)cc2C(F)(F)F)C(=O)CC1(C)c1ccccc1` (racemic) [Example 46, (6RS)-1,6-Dimethyl-6-phenyl-3-[5-(2-phenylethynyl)-3-(trifluoromethyl)-2-pyridyl]hexahydropyrimidine-2,4-dione]: the Emax was found to be 105% and the EC50 was determined as 116 nM.

As for `CN1C(=O)N(c2c(F)cc(C#Cc3ccccc3)cc2F)C(=O)C[C@@]1(C)c1ccn(C)c(=O)c1` [Example 75, (6S)-3-[2,6-Difluoro-4-(2-phenylethynyl)phenyl]-1,6-dimethyl-6-(1-methyl-2-oxo-4-pyridyl)hexahydropyrimidine-2,4-dione], the Emax came to 108% and the EC50 is 55 nM.

On to `CN1C(=O)N(c2c(F)cc(C#Cc3ccccc3)cc2F)C(=O)C[C@@]1(C)c1cnc2c(ccn2C)c1` [Example 84, (6S)-3-[2,6-Difluoro-4-(2-phenylethynyl)phenyl]-1,6-dimethyl-6-(1-methylpyrrolo[2,3-b]pyridin-5-yl)hexahydropyrimidine-2,4-dione], for which the Emax was determined as 114% and the EC50 amounted to 40 nM.

Consider `CC(C)N1CCN2C(=O)N(c3c(F)cc(C#Cc4ccccc4)cc3F)C(=O)CC2(C)C1=O` (racemic) [Example 36, (9aRS)-7-[2,6-Difluoro-4-(2-phenylethynyl)phenyl]-2-isopropyl-9a-methyl-4,9-dihydro-3H-pyrazino[1,2-c]pyrimidine-1,6,8-trione], for which the Emax was found to be 128% and the half-maximal effective concentration (EC50) turned out to be 169 nM.
